From US20260356820A1, “Pyrrolidine and Imidazolidine Based DNA Polymerase Theta Inhibitors and Use Thereof” (Thomas Jefferson University, priority 2022, published 2026)
pIC50: −log10 of the molar value.

Molecular target: T1, human Polq polymerase domain (Homo sapiens, UniProt O75417)
T1 sequence (O75417 1792-2590): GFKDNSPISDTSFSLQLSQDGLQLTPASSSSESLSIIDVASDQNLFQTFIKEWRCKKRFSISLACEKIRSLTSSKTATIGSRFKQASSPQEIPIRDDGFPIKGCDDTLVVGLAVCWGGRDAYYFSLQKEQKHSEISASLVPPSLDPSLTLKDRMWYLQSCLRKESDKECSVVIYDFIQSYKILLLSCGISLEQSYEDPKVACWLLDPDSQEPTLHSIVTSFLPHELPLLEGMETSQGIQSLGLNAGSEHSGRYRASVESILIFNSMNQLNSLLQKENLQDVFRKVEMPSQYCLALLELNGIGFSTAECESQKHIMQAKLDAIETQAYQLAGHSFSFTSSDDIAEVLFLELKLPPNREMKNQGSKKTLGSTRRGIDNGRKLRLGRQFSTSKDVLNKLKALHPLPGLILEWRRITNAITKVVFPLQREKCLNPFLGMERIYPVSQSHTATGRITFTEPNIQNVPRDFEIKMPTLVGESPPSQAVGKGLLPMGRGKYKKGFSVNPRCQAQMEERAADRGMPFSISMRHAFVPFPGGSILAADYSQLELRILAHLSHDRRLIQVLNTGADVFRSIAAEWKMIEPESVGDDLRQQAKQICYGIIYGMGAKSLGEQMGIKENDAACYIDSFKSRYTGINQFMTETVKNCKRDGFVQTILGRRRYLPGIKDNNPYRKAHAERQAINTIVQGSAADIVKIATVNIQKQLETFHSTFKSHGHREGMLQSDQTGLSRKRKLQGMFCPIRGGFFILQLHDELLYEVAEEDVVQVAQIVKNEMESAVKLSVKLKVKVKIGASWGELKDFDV
Experiment: Cy5 fluorescence assay of Polq polymerase domain inhibition
Assay type: biochemical
Details: not given
Procedure: The following Cy5 fluorescence assay was used to measure the ability of compounds to inhibit Polq polymerase domain in vitro. The fluorescent based assay was performed as follows: 60 nM of the pre-annealed primer-template containing a 5′ Cy5 fluorophore conjugated template strand (SEQ ID NO:3: 5′-/5Cy5/[…]-3′), a downstream complementary oligo conjugated with a 3′ Blackhole quencher (SEQ ID NO:4: 5′-CTAAGCTCACAGTG/3IAbRQSp/-3′) and a primer strand (SEQ ID NO:5: 5′-CTGTCCTGCATGATG-3′) was mixed with 50 uM 2′-deoxyribonucleoside triphosphates (dNTPs), 0.1 mg/mL Bovine serum albumin (BSA), 0.01% NP-40, 10% glycerol, 1 mM dithiothreitol (DTT), 10 mM MgCl2, 25 mM TrisHCl pH 7.8 in the presence of 2.5% DMSO with or without various concentrations (7-point dilution series) of Polq small molecule inhibitors represented by Formula I at 37 °C in a volume of 40 μL.

Compared with `CN(C(=O)Oc1c(N2C(=O)NC(O)C2O)cc(C(F)(F)F)cc1C(F)(F)F)c1ccc(F)cc1` (stereo not shown) [Example 16, 2-(4,5-dihydroxy-2-oxoimidazolidin-1-yl)-4,6-bis(trifluoromethyl)phenyl N-(4-fluorophenyl)-N-methylcarbamate], `C[C@@H]1CCC(=O)N1c1cc(C(F)(F)F)cc(C(F)(F)F)c1OC(=O)N(C)c1ccc(F)cc1` [Example 17, 2-[(2R)-2-methyl-5-oxopyrrolidin-1-yl]-4,6-bis(trifluoromethyl)phenyl N-(4-fluorophenyl)-N-methylcarbamate] is 2.27 log units lower in pIC50: 8.27 for the first, 6.00 for the second.

`CN(C(=O)Oc1c(N2CC(C(F)(F)F)NC2=O)cc(C(F)(F)F)cc1C(F)(F)F)c1ccc(F)cc1` (stereo not shown) [Example 18, 2-(2-oxo-4-(trifluoromethyl)imidazolidin-1-yl)-4,6-bis(trifluoromethyl)phenyl (4-fluorophenyl)(methyl)carbamate] and `CN1C(=O)CN(c2cc(C(F)(F)F)cc(C(F)(F)F)c2OC(=O)N(C)c2ccc(F)cc2)C1=O` [Example 27, 2-(3-methyl-2,4-dioxoimidazolidin-1-yl)-4,6-bis(trifluoromethyl)phenyl N-(4-fluorophenyl)-N-methylcarbamate] are within 0.2 log units of each other in pIC50: 7.66 for the first, 7.62 for the second.

`CN(C(=O)Oc1c(N2CCN(CCOS(N)(=O)=O)C2=O)cc(C(F)(F)F)cc1C(F)(F)F)c1ccc(F)cc1` [Example 21, 2-{2-oxo-3-[2-(sulfamoyloxy)ethyl]imidazolidin-1-yl}-4,6-bis(trifluoromethyl)phenyl N-(4-fluorophenyl)-N-methylcarbamate] and `CN(C(=O)Oc1c(N2CCN(CCOC(F)F)C2=O)cc(C(F)(F)F)cc1C(F)(F)F)c1ccc(F)cc1` [Example 32, 2-(3-(2-(difluoromethoxy)ethyl)-2-oxoimidazolidin-1-yl)-4,6-bis(trifluoromethyl)phenyl N-(4-fluorophenyl)-N-methylcarbamate] are within 0.2 log units of each other in pIC50: 8.72 for the first, 8.64 for the second.

Going from `CN(C(=O)Oc1c(N2CCN(CC3(O)CN(C(=O)OC(C)(C)C)C3)C2=O)cc(C(F)(F)F)cc1C(F)(F)F)c1ccc(F)cc1` [Example 23, tert-butyl 3-((3-(2-(((4-fluorophenyl)(methyl)carbamoyl)oxy)-3,5-bis(trifluoromethyl)phenyl)-2-oxoimidazolidin-1-yl)methyl)-3-hydroxyazetidine-1-carboxylate] to `[2H]C([2H])([2H])N(C(=O)Oc1c(N2CCN(CC3(O)CNC3)C2=O)cc(C(F)(F)F)cc1C(F)(F)F)c1ccc(F)cc1` [Example 36, 2-(3-((3-hydroxyazetidin-3-yl)methyl)-2-oxoimidazolidin-1-yl)-4,6-bis(trifluoromethyl)phenyl (4-fluorophenyl)(methyl-d3)carbamate], the pIC50 falls from 8.74 to 8.22 (0.52 log units).

Compared with `CN(C(=O)Oc1c(N2CCN(CC3CO3)C2=O)cc(C(F)(F)F)cc1C(F)(F)F)c1ccc(F)cc1` (stereo not shown) [Example 25, 2,4-bis(trifluoromethyl)-6-(3-((oxiran-2-yl)methyl)-2-oxoimidazolidin-1-yl)phenyl (4-fluorophenyl)(methyl)carbamate], `CN(C(=O)Oc1c(N2CCN(C3CC(O)C3)C2=O)cc(C(F)(F)F)cc1C(F)(F)F)c1ccc(F)cc1` (stereo not shown) [Example 34, 2-(3-(3-hydroxycyclobutyl)-2-oxoimidazolidin-1-yl)-4,6-bis(trifluoromethyl)phenyl (4-Fluorophenyl)(methyl)carbamate] is 0.46 log units higher in pIC50: 8.24 for the first, 8.70 for the second.

Going from `CN(C(=O)Oc1c(N2CCNC2=O)cc(C(F)(F)F)cc1C(F)(F)F)c1ccc(OC(F)F)cc1` [Example 26, 2-(2-oxoimidazolidin-1-yl)-4,6-bis(trifluoromethyl)phenyl (4-(difluoromethoxy)phenyl)(methyl)carbamate] to `Cc1cc(N(C)C(=O)Oc2c(N3CCNC3=O)cc(C(F)(F)F)cc2C(F)(F)F)ccc1F` [Example 28, 2-(2-oxoimidazolidin-1-yl)-4,6-bis(trifluoromethyl)phenyl N-(4-fluoro-3-methylphenyl)-N-methylcarbamate], the pIC50 falls from 7.32 to 5.92 (1.40 log units).

First: CN(C(=O)Oc1c(N2CCNC2=O)cc(C(F)(F)F)cc1C(F)(F)F)c1ccc2ccn(C)c2n1 [Example 29, 2-(2-oxoimidazolidin-1-yl)-4,6-bis(trifluoromethyl)phenyl N-methyl-N-{1-methyl-1H-pyrrolo[2,3-b]pyridin-6-yl}carbamate]
Second: CN(C(=O)Oc1c(N2CCN(C3CCS(=O)(=O)C3)C2=O)cc(C(F)(F)F)cc1C(F)(F)F)c1ccc(F)cc1 (stereo not shown) [Example 35, 2-(3-(1,1-dioxidotetrahydrothiophen-3-yl)-2-oxoimidazolidin-1-yl)-4,6-bis(trifluoromethyl)phenyl (4-fluorophenyl)(methyl)carbamate]
The pIC50 of the first is 3.86 log units lower: 4.74 for the first, 8.60 for the second. The second is the more potent here.

Compared with `CN(C(=O)Oc1c(N2CCN(CCOS(=O)(=O)NC(=O)COCCOCCOCCN)C2=O)cc(C(F)(F)F)cc1C(F)(F)F)c1ccc(F)cc1` [Example 30, 2-(3-(2-(((4-fluorophenyl)(methyl)carbamoyl)oxy)-3,5-bis(trifluoromethyl)phenyl)-2-oxoimidazolidin-1-yl)ethyl (2-(2-(2-(2-aminoehoxy)ethoxy)ethoxy)acetyl)sulfamate], `CN(C(=O)Oc1c(N2CCN(CC3(O)CNC3)C2=O)cc(C(F)(F)F)cc1C(F)(F)F)c1ccc(F)c(Cl)c1F` [Example 38, 2,4-bis(trifluoromethyl)-6-(3-((3-hydroxyazetidin-3-yl)methyl)-2-oxoimidazolidin-1-yl)phenyl (3-chloro-2,4-difluorophenyl)(methyl)carbamate] is 0.55 log units lower in pIC50: 8.66 for the first, 8.11 for the second.

For `[2H]C([2H])([2H])N(C(=O)Oc1c(N2CCN(CC3(O)CNC3)C2=O)cc(C(F)(F)F)cc1C(F)(F)F)c1ccc(F)c(Cl)c1F` [Example 37, 2-(3-((3-hydroxyazetidin-3-yl)methyl)-2-oxoimidazolidin-1-yl)-4,6-bis(trifluoromethyl)phenyl (3-chloro-2,4-difluorophenyl)(methyl-d3)carbamate], the pIC50 was 8.57.

Same assay, conditions: 5 nM Polq polymerase domain (residues 1792-2590), 60 nM primer-template, 50 uM dNTPs, 37 °C, 18 min; read-out: IC50 (nM) Polq

Going from `CN(C(=O)Oc1c(N2CC[C@H](O)C2=O)cc(C(F)(F)F)cc1C(F)(F)F)c1ccc(F)cc1` [Example 19, 2,4-bis(trifluoromethyl)-6-((S)-3-hydroxy-2-oxopyrrolidin-1-yl)phenyl 4-fluorophenylmethylcarbamate] to `CC(O)CN1CCN(c2cc(C(F)(F)F)cc(C(F)(F)F)c2OC(=O)N(C)c2ccc(F)cc2)C1=O` (stereo not shown) [Example 20, 2,4-bis(trifluoromethyl)-6-(3-(2-hydroxypropyl)-2-oxoimidazolidin-1-yl)phenyl 4-fluorophenylmethylcarbamate], the IC50 falls from 16 nM to 2.4 nM (6.7-fold). The second is the more potent here.

First: CN(C)CC(O)CN1CCN(c2cc(C(F)(F)F)cc(C(F)(F)F)c2OC(=O)N(C)c2ccc(F)cc2)C1=O (stereo not shown) [Example 24, 2-(3-(3-(dimethylamino)-2-hydroxypropyl)-2-oxoimidazolidin-1-yl)-4,6-bis(trifluoromethyl)phenyl (4-fluorophenyl)(methyl)carbamate]
Second: O=C1NCCN1c1cc(C(F)(F)F)cc(C(F)(F)F)c1OC(=O)N(c1ccc(F)cc1)C1CC1 [Example 31, 2,4-bis(trifluoromethyl)-6-(2-oxoimidazolidin-1-yl)phenyl cyclopropyl4-fluorophenylcarbamate]
The IC50 of the first is 4.6-fold lower: 6.7 nM for the first, 31 nM for the second.

In the case of `CN(C(=O)Oc1c(N2CCNC2=O)cc(C(F)(F)F)cc1C(F)(F)F)c1ccccc1CC#N` [Example 33, 2,4-bis(trifluoromethyl)-6-(2-oxoimidazolidin-1-yl)phenyl 2-(cyanomethyl)phenylmethylcarbamate], the IC50 was 590 nM.
